# Assay results as given in patent publication US8889377B2, “GPCR comprising an IC2 insertion” (ConfometRx, Inc., priority 2010, dated 2014).
# Tested on: mGluR5 and Rock10 (mGluR5-T4 lysozyme fusion protein of FIG. 3)
# Assay: 3H-MPEP ligand binding in membranes of transfected HEK293 cells
# Set-up: species or system human
# Settings: HEK293 cell membranes; ^3H-MPEP radioligand; wild-type mGluR5 vs fusion protein Rock10 (FIG. 6)
# Procedure: HEK293 cells were cultured on plastic dishes at 37° C. with 5% CO2 in Dulbecco's modified Eagle's medium (Cellgro) with 5% fetal bovine serum. For an individual expression experiment, cells at confluency were split, and approximately 100,000 cells were used to seed glass cover slips in the same medium. After 2 d, cells are transfected with the addition of 1 μg of a given pCDNA3-receptor plasmid and 3 μl of Fugene 6 reagent (Roche). 48 h after transfection, cells were harvested and membranes prepared for ligand binding analysis. ^3H-MPEP (a negative allosteric modulator that binds to the transmembrane domains of mGluR5) was used to detect functional mGluR5 in HEK293 cell membranes (see FIG. 6).
smiles,measurement,value
Cc1cccc(C#Cc2ccccc2)n1 [MPEP],affinity of MPEP for mGluR5 compared with Rock10,same affinity for mGluR5 as Rock10
